Paper PMC9267128, “New 2-[(4-Amino-6-N-substituted-1,3,5-triazin-2-yl)methylthio]-N-(imidazolidin-2-ylidene)-4-chloro-5-methylbenzenesulfonamide Derivatives, Design, Synthesis and Anticancer Evaluation” (International Journal of Molecular Sciences, 2022)

Columns and labels:
[1] = test system: MCF-7 (breast cancer); experiment: MTT cell viability assay, MCF-7; format: cell-based, human; settings: for IC50: Homo sapiens, MCF7, 72 h, MTT assay, 72 h of incubation
Method: (§1) Compounds 20–162 were evaluated in vitro for their effects on the viability of three cancer cell lines: HCT-116 (colon cancer), MCF-7 (breast cancer) and HeLa (cervical cancer), as well as the non-cancerous keratinocyte cell line (HaCaT). […] Analysis was performed using an MTT assay after 72 h of incubation.
(§2) All chemicals, if not stated otherwise, were obtained from Sigma–Aldrich (St. Louis, MO, USA). The HCT-116 cell line was purchased from ATCC (ATCC-No: CCL-247), while the MCF-7, HeLa and HaCaT cell lines were purchased from Cell Lines Services (Eppelheim, Germany). Cells were cultured in Dulbecco’s modified Eagle’s medium (DMEM) supplemented with 10% fetal bovine serum, 2 mM glutamine, 100 units/mL penicillin and 100 µg/mL streptomycin. Cultures were maintained in a humidified atmosphere with 5% carbon dioxide at 37 °C in an incubator (Heraceus, HeraCell).
(§3) Cell viability was examined using the MTT [3-(4,5-dimethylthiazol-2-yl)-2,5-diphenyltetrazolium bromide] assay. Cells were seeded in 96-well plates at a density of 3 × 10^3 cells/well and treated for 72 h with the tested compounds in the concentration range of 1–100 µM. Then, MTT (0.5 mg/mL) was added to the medium and cells were further incubated for 2 h at 37 °C. In the next stage, cells were lysed with DMSO and the absorbance of the formazan solution was measured at 550 nm with a plate reader (1420 multilabel counter, Victor, Jügesheim, Germany). The experiment was performed in triplicate. Values are expressed as the mean ± SD of at least three independent experiments. Cisplatin was used as a positive control.

[2] = test system: HaCaT (human keratinocyte cell line); experiment: MTT cell viability assay, non-cancerous HaCaT; format: cell-based; settings: Homo sapiens, HaCaT, 72 h, 72 h of incubation, non-cancerous keratinocytes
Method: as §1, §2, §3

[3] = test system: HCT-116 (colon cancer); experiment: MTT cell viability assay, HCT-116; format: cell-based, human; settings: for IC50: Homo sapiens, HCT-116, 72 h, MTT assay, 72 h of incubation
Method: (§4) Analysis was performed using an MTT assay after 72 h of incubation.
as §2
as §3, with “experiments.” for “experiments. Cisplatin was used as a positive control.”

[4] = test system: HeLa (cervical cancer); experiment: MTT cell viability assay, HeLa; format: cell-based, human; settings: for IC50: Homo sapiens, HeLa, MTT assay, 72 h of incubation
Method: as §4, §2
as §3, with “experiments.” for “experiments. Cisplatin was used as a positive control.”

| Structure (SMILES) | IC50 [1] [µM] | IC50 [2] [µM] | IC50 [3] [µM] | IC50 [4] [µM] | Selectivity Index (SI) MCF-7 ([1]; IC50 value toward HaCaT cells/IC50 value toward MCF-7) | Selectivity Index (SI) HCT-116 ([3]; IC50 value toward HaCaT cells/IC50 value toward HCT-116) | Selectivity Index (SI) HeLa ([4]; IC50 value toward HaCaT cells/IC50 value toward HeLa) |
| --- | --- | --- | --- | --- | --- | --- | --- |
| Cc1cc(S(=O)(=O)N=C2NCCN2Cc2ccc(F)cc2)c(SCc2nc(N)nc(N3CCN(c4cccc(Cl)c4)CC3)n2)cc1Cl [Compound 97] | 7 ± 0.4 | 24 ± 1 | 6 ± 0.2 | 9 ± 0.3 |  |  |  |
| Cc1cc(S(=O)(=O)N=C2NCCN2Cc2ccc(F)cc2)c(SCc2nc(N)nc(N3CCN(c4ccc(Cl)c(Cl)c4)CC3)n2)cc1Cl [Compound 98] | 7 ± 0.4 | 18 ± 1 | 7 ± 0.1 | 8 ± 0.4 |  |  |  |
| Cc1cc(S(=O)(=O)N=C2NCCN2Cc2ccc(F)cc2)c(SCc2nc(N)nc(N3CCN(c4ccc(F)c(Cl)c4)CC3)n2)cc1Cl [Compound 99] | 17 ± 1 | 30 ± 1 | 17 ± 1 | 18 ± 0.5 |  |  |  |
| COc1ccc(N2CCN(c3nc(N)nc(CSc4cc(Cl)c(C)cc4S(=O)(=O)N=C4NCCN4Cc4ccc(F)cc4)n3)CC2)cc1 [Compound 100] | 7 ± 0.1 | 18 ± 1 | 8 ± 0.2 | 8 ± 0.5 |  |  |  |
| Cc1cc(S(=O)(=O)N=C2NCCN2Cc2ccc(F)cc2)c(SCc2nc(N)nc(N3CCN(Cc4ccccc4)CC3)n2)cc1Cl [Compound 101] | 11 ± 0.2 | 21 ± 1 | 12 ± 0.5 | 10 ± 0.6 |  |  |  |
| Cc1cc(S(=O)(=O)N=C2NCCN2Cc2ccc(Br)cc2)c(SCc2nc(N)nc(N3CCc4ccccc43)n2)cc1Cl [Compound 102] | 7.5 ± 0.4 | 33 ± 1 | 8 ± 0.4 | 17 ± 1 |  |  |  |
| Cc1cc(S(=O)(=O)N=C2NCCN2Cc2ccc(Br)cc2)c(SCc2nc(N)nc(N3CCCc4ccccc43)n2)cc1Cl [Compound 103] | 6.5 ± 0.3 | 28 ± 1 | 7 ± 0.1 | 16 ± 0.5 |  |  |  |
| Cc1cc(S(=O)(=O)N=C2NCCN2Cc2ccc(Br)cc2)c(SCc2nc(N)nc(Nc3ccccc3)n2)cc1Cl [Compound 104] | 13 ± 0.4 | 44 ± 2 | 17 ± 1 | 25 ± 1 |  |  |  |
| Cc1cc(S(=O)(=O)N=C2NCCN2Cc2ccc(Br)cc2)c(SCc2nc(N)nc(N(C)c3ccc(Cl)cc3)n2)cc1Cl [Compound 105] | 10 ± 0.2 | 35 ± 2 | 13 ± 0.8 | 17 ± 0.5 |  |  |  |
| Cc1cc(S(=O)(=O)N=C2NCCN2Cc2ccc(Br)cc2)c(SCc2nc(N)nc(N3CCN(c4ccccc4)CC3)n2)cc1Cl [Compound 106] | 6.5 ± 0.4 | 110 ± 4 | 8.5 ± 0.1 | 82 ± 4 |  |  |  |
| Cc1cc(S(=O)(=O)N=C2NCCN2Cc2ccc(Br)cc2)c(SCc2nc(N)nc(N3CCN(c4ccc(F)cc4)CC3)n2)cc1Cl [Compound 107] | 7 ± 0.2 | 76 ± 4 | 8.5 ± 0.3 | 58 ± 2 |  |  |  |
| Cc1cc(S(=O)(=O)N=C2NCCN2Cc2ccc(Br)cc2)c(SCc2nc(N)nc(N3CCN(c4cccc(C(F)(F)F)c4)CC3)n2)cc1Cl [Compound 108] | 11 ± 0.5 | 24 ± 1 | 10.5 ± 0.5 | 11 ± 0.5 |  |  |  |
| Cc1cc(S(=O)(=O)N=C2NCCN2Cc2ccc(Br)cc2)c(SCc2nc(N)nc(N3CCN(c4ccc(Cl)cc4)CC3)n2)cc1Cl [Compound 109] | 22 ± 0.5 | 55 ± 2 | 23 ± 1 | 36 ± 2 |  |  |  |
| Cc1cc(S(=O)(=O)N=C2NCCN2Cc2ccc(Br)cc2)c(SCc2nc(N)nc(N3CCN(c4ccc(Cl)c(Cl)c4)CC3)n2)cc1Cl [Compound 110] | 23 ± 1 | 123 ± 6 | 20 ± 0.6 | 85 ± 5 |  |  |  |
| Cc1cc(S(=O)(=O)N=C2NCCN2Cc2cccc(C(F)(F)F)c2)c(SCc2nc(N)nc(N3CCCc4ccccc43)n2)cc1Cl [Compound 112] | 17 ± 1 | 29 ± 1 | 15 ± 0.3 | 15.5 ± 1 |  |  |  |
| Cc1cc(S(=O)(=O)N=C2NCCN2Cc2cccc(C(F)(F)F)c2)c(SCc2nc(N)nc(N3CCN(c4ccc(C(F)(F)F)cc4)CC3)n2)cc1Cl [Compound 114] | 6.5 ± 0.3 | 27 ± 1 | 5 ± 0.2 | 12 ± 0.3 | 4.1 | 5.4 | 2.2 |
| Cc1cc(S(=O)(=O)N=C2NCCN2Cc2cccc(C(F)(F)F)c2)c(SCc2nc(N)nc(N3CCN(c4ccc(Cl)c(Cl)c4)CC3)n2)cc1Cl [Compound 115] | 6.5 ± 0.2 | 23 ± 0.5 | 5.5 ± 0.2 | 12 ± 1 |  |  |  |

| Structure (SMILES) | IC50 [1] [µM] | IC50 [2] [µM] | IC50 [3] [µM] | IC50 [4] [µM] | Selectivity Index (SI) MCF-7 ([1]; IC50 value toward HaCaT cells/IC50 value toward MCF-7) | Selectivity Index (SI) HCT-116 ([3]; IC50 value toward HaCaT cells/IC50 value toward HCT-116) | Selectivity Index (SI) HeLa ([4]; IC50 value toward HaCaT cells/IC50 value toward HeLa) |
| --- | --- | --- | --- | --- | --- | --- | --- |
| COc1ccc(N2CCN(c3nc(N)nc(CSc4cc(Cl)c(C)cc4S(=O)(=O)N=C4NCCN4Cc4cccc(C(F)(F)F)c4)n3)CC2)cc1 [Compound 116] | 8.5 ± 0.3 | 31 ± 2 | 6 ± 0.2 | 17 ± 1 |  |  |  |
| Cc1cc(S(=O)(=O)N=C2NCCN2Cc2cccc(C(F)(F)F)c2)c(SCc2nc(N)nc(N3CCN(Cc4ccccc4)CC3)n2)cc1Cl [Compound 117] | 17 ± 1 | 36 ± 2 | 16 ± 0.5 | 12 ± 0.2 |  |  |  |
| Cc1cc(S(=O)(=O)N=C2NCCN2Cc2ccc(C(F)(F)F)cc2)c(SCc2nc(N)nc(N3CCOCC3)n2)cc1Cl [Compound 119] | 13.5 ± 1 | 41 ± 2 | 13 ± 0.4 | 18 ± 1 |  |  |  |
| Cc1cc(S(=O)(=O)N=C2NCCN2Cc2ccc(C(F)(F)F)cc2)c(SCc2nc(N)nc(N3CCc4ccccc43)n2)cc1Cl [Compound 120] | 11 ± 0.1 | 24 ± 1 | 9 ± 0.5 | 12 ± 0.5 |  |  |  |
| Cc1cc(S(=O)(=O)N=C2NCCN2Cc2ccc(C(F)(F)F)cc2)c(SCc2nc(N)nc(N3CCCc4ccccc43)n2)cc1Cl [Compound 121] | 14 ± 1 | 24 ± 1 | 6 ± 0.1 | 13 ± 1 |  |  |  |
| Cc1cc(S(=O)(=O)N=C2NCCN2Cc2ccc(C(F)(F)F)cc2)c(SCc2nc(N)nc(Nc3ccccc3)n2)cc1Cl [Compound 122] | 20 ± 1 | 35 ± 1 | 14 ± 0.4 | 19 ± 0.5 |  |  |  |
| Cc1cc(S(=O)(=O)N=C2NCCN2Cc2ccc(C(F)(F)F)cc2)c(SCc2nc(N)nc(Nc3ccc(F)cc3)n2)cc1Cl [Compound 123] | 21 ± 0.6 | 30 ± 1 | 12 ± 0.5 | 18 ± 1 |  |  |  |
| Cc1cc(S(=O)(=O)N=C2NCCN2Cc2ccc(C(F)(F)F)cc2)c(SCc2nc(N)nc(Nc3cccc(Cl)c3)n2)cc1Cl [Compound 124] | 10 ± 0.5 | 31 ± 1 | 9.5 ± 0.1 | 15 ± 0.2 |  |  |  |
| Cc1cc(S(=O)(=O)N=C2NCCN2Cc2ccc(C(F)(F)F)cc2)c(SCc2nc(N)nc(Nc3ccc(C(F)(F)F)cc3)n2)cc1Cl [Compound 125] | 7.5 ± 0.2 | 25 ± 1 | 7.5 ± 0.2 | 13 ± 0.5 |  |  |  |
| COc1ccc(Nc2nc(N)nc(CSc3cc(Cl)c(C)cc3S(=O)(=O)N=C3NCCN3Cc3ccc(C(F)(F)F)cc3)n2)cc1 [Compound 126] | 21 ± 1 | 37 ± 1 | 11 ± 0.6 | 20 ± 1 |  |  |  |
| Cc1cc(S(=O)(=O)N=C2NCCN2Cc2ccc(C(F)(F)F)cc2)c(SCc2nc(N)nc(NCc3ccccc3)n2)cc1Cl [Compound 127] | 17.5 ± 1 | 39 ± 2 | 17 ± 0.5 | 18 ± 1 |  |  |  |
| Cc1cc(S(=O)(=O)N=C2NCCN2Cc2ccc(C(F)(F)F)cc2)c(SCc2nc(N)nc(N(C)c3ccccc3)n2)cc1Cl [Compound 128] | 14 ± 0.5 | 33 ± 1 | 10 ± 0.3 | 15 ± 0.4 |  |  |  |
| Cc1cc(S(=O)(=O)N=C2NCCN2Cc2ccc(C(F)(F)F)cc2)c(SCc2nc(N)nc(N(C)c3ccc(Cl)cc3)n2)cc1Cl [Compound 129] | 14 ± 0.5 | 31 ± 1 | 11 ± 0.1 | 15 ± 1 |  |  |  |
| Cc1cc(S(=O)(=O)N=C2NCCN2Cc2ccc(C(F)(F)F)cc2)c(SCc2nc(N)nc(N3CCN(C)CC3)n2)cc1Cl [Compound 130] | 8 ± 0.3 | 36 ± 1 | 10.5 ± 0.4 | 17 ± 0.5 |  |  |  |
| Cc1cc(S(=O)(=O)N=C2NCCN2Cc2ccc(C(F)(F)F)cc2)c(SCc2nc(N)nc(N3CCN(c4ccccc4)CC3)n2)cc1Cl [Compound 131] | 15 ± 0.5 | 25 ± 1 | 7 ± 0.2 | 13 ± 0.5 |  |  |  |
| Cc1cc(S(=O)(=O)N=C2NCCN2Cc2ccc(C(F)(F)F)cc2)c(SCc2nc(N)nc(N3CCN(c4ccc(F)cc4)CC3)n2)cc1Cl [Compound 132] | 17 ± 0.4 | 26 ± 1 | 8 ± 0.2 | 16 ± 1 |  |  |  |
